The values below are quoted from earlier work in patent US20250000878A1 (priority 2014, published 2025).

For series [1] the following is noted: in vivo.
A further series has as its system beta amyloid. To be noted: AD transgenic mice.
For series [2] the following is noted: 0.2 mg pure huperzine A orally.
The test system of series [3] is patients with mild to moderate VaD. To be noted: 100 mcg twice daily for 12 weeks.
The subject of series [4] is patients with possible or probable AD. To be noted: 0.1-0.2 mg twice daily, active group.

As for `C[C@]12CC[C@H](O)CC1=CC[C@@H]1[C@@H]2CC[C@]2(C)C(=O)CC[C@@H]12` [DHEA, dehydroepiandrosterone], in the series with elderly men and women (50 mg per day, one year), the insulin resistance result is “significant improvement”. Further, the “reduction of visceral fat measured by MRI” value with elderly men and women (50 mg per day, one year, mean age 70 years) is reported as “about 10%”. Further, in the series with elderly men and women (vs placebo controls), the “circulating cytokines TNF alpha and IL-6” value is recorded as “significant decrease”.
With `Cn1c(=O)c2c(ncn2C)n(C)c1=O` [Caffeine], in series [1], the half life is 4 to 6 h and the “time to peak blood levels” value is recorded as “within one hour”. Further, in the series with beta amyloid, the “reduction of beta amyloid deposition, entorhinal cortex” value is reported as 46% and the “reduction of beta amyloid deposition, hippocampus” value was 40%.
Turning to `C/C=C1\[C@H]2C=C(C)C[C@]1(N)c1ccc(=O)[nH]c1C2` [Huperzine A], the terminal half life entry in series [2] is “approximately 6 hours”. The cognitive function entry in series [3] is recorded as “significantly improved”. For the same molecule, the “proportion of patients with a four point improvement on the ADAS-cog” value in series [4] is recorded as 56%.
